Measured values: ChEMBL document CHEMBL3132769, “Fragment growing to retain or alter the selectivity of anchored kinase hinge-binding fragments” (Medchemcomm, 2014)

Tests used:
[1] = biological target: Mitogen-activated protein kinase 1 (Homo sapiens) (UniProt P28482); assay: Inhibition of human full length ERK2 expressed in Escherichia coli cell assessed as substrate phosphorylation using fluorescence-labelled peptides as substrate at 0.06 uM after 90 mins by microfluidic peptide phosphorylation assay
Chain of Mitogen-activated protein kinase 1 (Homo sapiens) (P28482 whole entry, the tested form may be a part): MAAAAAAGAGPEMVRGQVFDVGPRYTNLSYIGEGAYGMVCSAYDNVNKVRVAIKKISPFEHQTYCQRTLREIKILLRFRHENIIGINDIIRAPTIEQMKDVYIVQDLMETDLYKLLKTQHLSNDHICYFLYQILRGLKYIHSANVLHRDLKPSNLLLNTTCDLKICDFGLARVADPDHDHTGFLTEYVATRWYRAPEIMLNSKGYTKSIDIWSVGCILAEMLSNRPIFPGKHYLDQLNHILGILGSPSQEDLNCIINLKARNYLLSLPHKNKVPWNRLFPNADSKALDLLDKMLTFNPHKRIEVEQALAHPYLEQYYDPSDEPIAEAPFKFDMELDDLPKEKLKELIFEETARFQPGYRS

[2] = biological target: Proto-oncogene tyrosine-protein kinase Src (Homo sapiens) (UniProt P12931); assay: Inhibition of human full length SRC expressed in baculovirus assessed as substrate phosphorylation using fluorescence-labelled peptides as substrate at 420 uM after 90 mins by microfluidic peptide phosphorylation assay
Chain of Proto-oncogene tyrosine-protein kinase Src (Homo sapiens) (P12931 2-536 limits assumed): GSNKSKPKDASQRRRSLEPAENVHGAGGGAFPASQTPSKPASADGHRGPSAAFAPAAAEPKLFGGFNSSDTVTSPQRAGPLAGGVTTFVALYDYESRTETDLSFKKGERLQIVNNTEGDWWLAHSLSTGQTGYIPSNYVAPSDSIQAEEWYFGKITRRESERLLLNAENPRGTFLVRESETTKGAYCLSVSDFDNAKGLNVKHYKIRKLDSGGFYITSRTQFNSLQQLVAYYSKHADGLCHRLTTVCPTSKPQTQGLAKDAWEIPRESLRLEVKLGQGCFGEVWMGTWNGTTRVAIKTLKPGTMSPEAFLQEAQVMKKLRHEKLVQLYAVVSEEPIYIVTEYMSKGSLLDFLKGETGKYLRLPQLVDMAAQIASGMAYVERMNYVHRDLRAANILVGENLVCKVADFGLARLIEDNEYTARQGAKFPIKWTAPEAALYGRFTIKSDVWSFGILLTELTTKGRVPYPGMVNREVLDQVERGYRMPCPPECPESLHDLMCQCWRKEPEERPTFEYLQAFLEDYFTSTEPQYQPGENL

[3] = biological target: T1, Interleukin-1 receptor-associated kinase 4 (Homo sapiens) (UniProt Q9NWZ3); assay: Inhibition of human IRAK4 catalytic domain expressed in baculovirus assessed as substrate phosphorylation using fluorescence-labelled peptides as substrate at […] after 90 mins by microfluidic peptide phosphorylation assay
T1 sequence (whole entry): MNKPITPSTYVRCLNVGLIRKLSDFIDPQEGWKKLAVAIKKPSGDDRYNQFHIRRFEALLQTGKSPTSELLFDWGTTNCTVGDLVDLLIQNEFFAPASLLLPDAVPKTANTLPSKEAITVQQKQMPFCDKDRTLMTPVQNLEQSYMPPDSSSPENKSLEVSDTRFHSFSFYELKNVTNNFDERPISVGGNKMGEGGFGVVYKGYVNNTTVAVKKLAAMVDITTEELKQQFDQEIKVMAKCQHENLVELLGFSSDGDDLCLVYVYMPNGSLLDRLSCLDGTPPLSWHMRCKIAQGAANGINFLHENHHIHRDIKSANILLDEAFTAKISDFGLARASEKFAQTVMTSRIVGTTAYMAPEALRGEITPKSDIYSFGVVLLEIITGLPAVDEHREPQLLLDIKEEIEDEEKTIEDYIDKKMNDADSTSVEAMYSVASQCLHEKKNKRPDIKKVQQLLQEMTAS

[4] = biological target: T2, Cytoplasmic tyrosine-protein kinase BMX (Homo sapiens) (UniProt P51813); assay: Inhibition of human full length BMX expressed in baculovirus assessed as substrate phosphorylation using fluorescence-labelled peptides as substrate at 0.1 uM after 90 mins by microfluidic peptide phosphorylation assay
T2 sequence (whole entry): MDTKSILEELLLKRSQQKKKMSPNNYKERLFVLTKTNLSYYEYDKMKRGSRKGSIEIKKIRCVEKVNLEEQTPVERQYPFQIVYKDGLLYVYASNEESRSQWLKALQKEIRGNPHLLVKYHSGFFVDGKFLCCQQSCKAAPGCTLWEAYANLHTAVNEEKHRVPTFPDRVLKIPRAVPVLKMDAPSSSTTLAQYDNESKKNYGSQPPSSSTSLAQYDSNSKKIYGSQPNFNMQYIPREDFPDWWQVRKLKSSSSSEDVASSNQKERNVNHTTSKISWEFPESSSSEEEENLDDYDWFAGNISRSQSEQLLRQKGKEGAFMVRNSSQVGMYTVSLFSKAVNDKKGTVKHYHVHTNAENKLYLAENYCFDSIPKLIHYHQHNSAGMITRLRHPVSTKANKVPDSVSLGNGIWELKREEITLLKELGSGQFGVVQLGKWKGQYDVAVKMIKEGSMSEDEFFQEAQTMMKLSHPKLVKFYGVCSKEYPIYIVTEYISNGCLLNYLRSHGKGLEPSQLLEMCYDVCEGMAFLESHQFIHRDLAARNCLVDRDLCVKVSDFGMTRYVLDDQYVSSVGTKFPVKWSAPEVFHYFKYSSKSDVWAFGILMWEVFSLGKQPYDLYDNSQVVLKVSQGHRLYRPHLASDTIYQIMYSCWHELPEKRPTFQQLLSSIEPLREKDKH

[5] = organism: Homo sapiens; details: 0.1 uM
Description: Inhibition of human full length PKA expressed in baculovirus assessed as substrate phosphorylation using fluorescence-labelled peptides as substrate at 0.1 uM after 90 mins by microfluidic peptide phosphorylation assay

[6] = biological target: Tyrosine-protein kinase Lck (Homo sapiens) (UniProt P06239); assay: Inhibition of human full length LCK expressed in baculovirus assessed as substrate phosphorylation using fluorescence-labelled peptides as substrate at 9 uM after 90 mins by microfluidic peptide phosphorylation assay
Chain of Tyrosine-protein kinase Lck (Homo sapiens) (P06239 2-509 limits assumed): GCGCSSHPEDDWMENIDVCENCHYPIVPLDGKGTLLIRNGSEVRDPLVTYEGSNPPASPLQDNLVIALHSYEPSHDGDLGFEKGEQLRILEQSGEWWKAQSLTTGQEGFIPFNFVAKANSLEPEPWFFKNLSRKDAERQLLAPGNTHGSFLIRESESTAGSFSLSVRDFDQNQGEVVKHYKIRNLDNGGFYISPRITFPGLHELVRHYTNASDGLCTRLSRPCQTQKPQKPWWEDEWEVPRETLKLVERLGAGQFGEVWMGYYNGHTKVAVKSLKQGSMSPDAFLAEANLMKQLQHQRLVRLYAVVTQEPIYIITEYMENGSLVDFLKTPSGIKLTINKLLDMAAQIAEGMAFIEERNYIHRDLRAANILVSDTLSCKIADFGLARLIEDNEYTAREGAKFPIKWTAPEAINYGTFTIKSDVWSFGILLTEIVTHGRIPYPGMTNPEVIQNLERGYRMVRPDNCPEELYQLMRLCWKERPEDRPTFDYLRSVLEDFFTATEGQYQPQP

[7] = biological target: Casein kinase I isoform delta (Homo sapiens) (UniProt P48730); assay: Inhibition of human CK1D catalytic domain expressed in Escherichia coli cell assessed as substrate phosphorylation using fluorescence-labelled peptides as substrate at 9 uM after 90 mins by microfluidic peptide phosphorylation assay
Chain of Casein kinase I isoform delta (Homo sapiens) (P48730 whole entry, looked up, the tested form may be a part, canonical isoform): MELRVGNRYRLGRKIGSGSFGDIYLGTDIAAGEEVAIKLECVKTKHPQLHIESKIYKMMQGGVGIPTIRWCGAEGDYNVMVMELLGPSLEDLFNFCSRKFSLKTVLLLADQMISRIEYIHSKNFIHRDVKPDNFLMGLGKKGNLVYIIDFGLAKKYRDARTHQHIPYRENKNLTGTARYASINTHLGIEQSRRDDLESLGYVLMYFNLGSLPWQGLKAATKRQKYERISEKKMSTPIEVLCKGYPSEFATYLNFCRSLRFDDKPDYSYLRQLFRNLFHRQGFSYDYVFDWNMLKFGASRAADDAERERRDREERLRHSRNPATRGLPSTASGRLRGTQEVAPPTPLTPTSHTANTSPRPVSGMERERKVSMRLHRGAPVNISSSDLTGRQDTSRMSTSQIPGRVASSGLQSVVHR

[8] = biological target: Mitogen-activated protein kinase 1 (Homo sapiens) (UniProt P28482); assay: Inhibition of human full length ERK2 expressed in Escherichia coli cell assessed as substrate phosphorylation using fluorescence-labelled peptides as substrate at 70 uM after 90 mins by microfluidic peptide phosphorylation assay
[9] = biological target: Protein kinase C theta type (Homo sapiens) (UniProt Q04759); assay: Inhibition of human truncated PKC theta expressed in baculovirus assessed as substrate phosphorylation using fluorescence-labelled peptides as substrate at 70 uM after 90 mins by microfluidic peptide phosphorylation assay
Chain of Protein kinase C theta type (Homo sapiens) (Q04759 whole entry, looked up, the tested form may be a part): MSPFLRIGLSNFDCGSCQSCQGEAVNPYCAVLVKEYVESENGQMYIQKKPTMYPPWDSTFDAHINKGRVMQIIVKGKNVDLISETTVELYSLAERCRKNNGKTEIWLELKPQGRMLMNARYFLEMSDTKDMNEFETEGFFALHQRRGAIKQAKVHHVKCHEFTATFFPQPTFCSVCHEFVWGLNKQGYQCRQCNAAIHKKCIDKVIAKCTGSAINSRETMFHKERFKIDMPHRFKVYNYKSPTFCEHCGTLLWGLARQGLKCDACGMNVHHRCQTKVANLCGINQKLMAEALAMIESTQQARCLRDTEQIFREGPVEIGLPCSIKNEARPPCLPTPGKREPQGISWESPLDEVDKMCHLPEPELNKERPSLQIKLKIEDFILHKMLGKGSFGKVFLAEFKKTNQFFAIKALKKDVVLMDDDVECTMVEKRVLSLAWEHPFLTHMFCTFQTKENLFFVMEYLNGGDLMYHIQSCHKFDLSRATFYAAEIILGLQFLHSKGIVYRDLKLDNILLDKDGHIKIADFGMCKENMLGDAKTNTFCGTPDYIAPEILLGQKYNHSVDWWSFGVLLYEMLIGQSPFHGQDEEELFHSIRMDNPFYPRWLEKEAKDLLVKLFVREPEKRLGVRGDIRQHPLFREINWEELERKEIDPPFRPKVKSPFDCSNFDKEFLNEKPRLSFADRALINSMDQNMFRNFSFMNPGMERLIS

[10] = biological target: Tyrosine-protein kinase ABL2 (Homo sapiens) (UniProt P42684); assay: Inhibition of human truncated Arg expressed in baculovirus assessed as substrate phosphorylation using fluorescence-labelled peptides as substrate at 8 uM after 90 mins by microfluidic peptide phosphorylation assay
Chain of Tyrosine-protein kinase ABL2 (Homo sapiens) (P42684 whole entry, the tested form may be a part): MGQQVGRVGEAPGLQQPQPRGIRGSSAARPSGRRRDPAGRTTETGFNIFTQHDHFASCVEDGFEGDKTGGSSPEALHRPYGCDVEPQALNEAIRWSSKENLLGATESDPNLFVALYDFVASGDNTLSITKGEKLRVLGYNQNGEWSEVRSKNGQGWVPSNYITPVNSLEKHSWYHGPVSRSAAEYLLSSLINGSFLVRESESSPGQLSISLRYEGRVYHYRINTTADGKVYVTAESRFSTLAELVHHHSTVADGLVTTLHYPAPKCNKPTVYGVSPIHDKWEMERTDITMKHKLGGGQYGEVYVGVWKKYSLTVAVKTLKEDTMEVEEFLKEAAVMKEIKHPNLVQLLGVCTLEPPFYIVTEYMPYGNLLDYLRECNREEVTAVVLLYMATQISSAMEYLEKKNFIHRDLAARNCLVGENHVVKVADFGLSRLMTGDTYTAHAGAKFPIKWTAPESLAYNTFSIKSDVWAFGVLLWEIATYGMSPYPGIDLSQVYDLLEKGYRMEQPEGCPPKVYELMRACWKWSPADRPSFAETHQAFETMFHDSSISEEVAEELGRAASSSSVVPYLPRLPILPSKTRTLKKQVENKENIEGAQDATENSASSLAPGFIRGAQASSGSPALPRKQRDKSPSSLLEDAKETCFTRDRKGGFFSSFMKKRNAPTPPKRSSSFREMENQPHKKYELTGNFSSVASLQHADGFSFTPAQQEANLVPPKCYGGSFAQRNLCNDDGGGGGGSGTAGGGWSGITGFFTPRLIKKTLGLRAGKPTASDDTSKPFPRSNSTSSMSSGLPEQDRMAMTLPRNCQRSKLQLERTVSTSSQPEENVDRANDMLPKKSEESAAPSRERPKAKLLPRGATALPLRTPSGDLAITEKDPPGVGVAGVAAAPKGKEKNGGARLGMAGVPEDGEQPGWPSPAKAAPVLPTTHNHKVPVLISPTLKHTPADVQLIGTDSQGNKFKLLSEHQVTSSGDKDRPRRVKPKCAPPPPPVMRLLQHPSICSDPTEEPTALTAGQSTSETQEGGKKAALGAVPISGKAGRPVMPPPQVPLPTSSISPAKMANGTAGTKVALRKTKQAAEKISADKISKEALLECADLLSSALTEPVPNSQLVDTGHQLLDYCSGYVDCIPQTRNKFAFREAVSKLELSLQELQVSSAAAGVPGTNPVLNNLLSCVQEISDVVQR

[11] = biological target: Calcium/calmodulin-dependent protein kinase type II subunit gamma (Homo sapiens) (UniProt Q13555); assay: Inhibition of human CAMK2 gamma catalytic domain expressed in baculovirus assessed as substrate phosphorylation using fluorescence-labelled peptides as substrate at 1000 uM after 90 mins by microfluidic peptide phosphorylation assay
Chain of Calcium/calmodulin-dependent protein kinase type II subunit gamma (Homo sapiens) (Q13555 whole entry, the tested form may be a part): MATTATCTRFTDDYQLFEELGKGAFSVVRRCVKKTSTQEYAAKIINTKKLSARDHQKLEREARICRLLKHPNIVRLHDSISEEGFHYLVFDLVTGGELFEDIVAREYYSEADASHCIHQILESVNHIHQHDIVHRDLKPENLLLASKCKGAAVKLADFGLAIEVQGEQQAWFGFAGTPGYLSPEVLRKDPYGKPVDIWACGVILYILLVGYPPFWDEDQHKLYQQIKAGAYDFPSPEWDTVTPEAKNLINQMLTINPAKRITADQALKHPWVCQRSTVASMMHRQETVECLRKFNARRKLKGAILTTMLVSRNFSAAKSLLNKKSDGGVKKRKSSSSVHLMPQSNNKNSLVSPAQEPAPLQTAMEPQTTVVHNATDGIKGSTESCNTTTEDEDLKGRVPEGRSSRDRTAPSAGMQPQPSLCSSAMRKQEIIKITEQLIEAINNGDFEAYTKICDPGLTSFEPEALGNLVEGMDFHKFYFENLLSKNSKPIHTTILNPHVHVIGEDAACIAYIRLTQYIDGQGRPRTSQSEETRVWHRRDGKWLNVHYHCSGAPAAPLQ

[12] = tested on: Tyrosine-protein kinase ABL1 (Homo sapiens), P00519 [H396P]; assay: Inhibition of human truncated ABL H396P mutant expressed in baculovirus assessed as substrate phosphorylation using fluorescence-labelled peptides as substrate at 2 uM after 90 mins by microfluidic peptide phosphorylation assay
[13] = biological target: RAF proto-oncogene serine/threonine-protein kinase (Homo sapiens) (UniProt P04049); assay: Inhibition of human truncated c-Raf expressed in baculovirus assessed as substrate phosphorylation using fluorescence-labelled peptides as substrate at 2 uM after 90 mins by microfluidic peptide phosphorylation assay
Chain of RAF proto-oncogene serine/threonine-protein kinase (Homo sapiens) (P04049 whole entry, the tested form may be a part): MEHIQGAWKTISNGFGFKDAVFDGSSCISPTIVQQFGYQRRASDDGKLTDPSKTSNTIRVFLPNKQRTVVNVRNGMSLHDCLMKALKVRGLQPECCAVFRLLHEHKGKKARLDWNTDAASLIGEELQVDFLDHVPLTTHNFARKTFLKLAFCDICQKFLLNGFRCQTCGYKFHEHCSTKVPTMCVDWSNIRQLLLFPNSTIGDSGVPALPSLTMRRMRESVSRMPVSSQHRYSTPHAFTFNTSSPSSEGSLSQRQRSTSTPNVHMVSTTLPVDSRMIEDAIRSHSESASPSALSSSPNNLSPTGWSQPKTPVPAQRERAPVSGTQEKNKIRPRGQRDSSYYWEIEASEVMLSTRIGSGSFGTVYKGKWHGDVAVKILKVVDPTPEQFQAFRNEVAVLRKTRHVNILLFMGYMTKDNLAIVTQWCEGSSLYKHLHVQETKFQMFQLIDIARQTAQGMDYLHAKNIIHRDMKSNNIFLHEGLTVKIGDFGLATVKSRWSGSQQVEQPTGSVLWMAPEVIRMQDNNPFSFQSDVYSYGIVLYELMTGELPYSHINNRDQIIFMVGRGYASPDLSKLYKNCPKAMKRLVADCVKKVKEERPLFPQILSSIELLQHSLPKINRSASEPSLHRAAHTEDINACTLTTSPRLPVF

Compound: NC1(Cc2ccc(Cl)cc2)CCN(c2ncnc3[nH]ccc23)CC1
- inhibition [1]: 4.5%

Compound: c1nc(N2CCOCC2)c2nc[nH]c2n1
- inhibition [2]: 62.5%

Compound: COC(=O)c1cnc(Nc2cnc(C#N)cn2)cc1NCC1CCNCC1
- inhibition [3]: 5.5%

Compound: C[C@H](CN(C)C)Oc1nc(Nc2cc3cccc(Cl)c3cn2)cnc1C#N
- inhibition [4]: 3%
- inhibition [5]: 0%

Compound: NCC1CN(c2ncnc3[nH]c4cnccc4c23)CCO1 (stereo not drawn)
- inhibition [6]: 39%
- inhibition [7]: 39.5%

Compound: CNCc1ccc(-c2ncnc3[nH]cnc23)cc1
- inhibition [8]: 29%
- inhibition [9]: 67.5%

Compound: NCC1CCN(c2ncnc3[nH]ccc23)CC1
- inhibition [10]: 3.5%

Compound: c1cnc2[nH]ccc2c1
- inhibition [11]: 24.5%

Compound: NC1CCN(c2ncnc3[nH]ccc23)CC1
- inhibition [12]: 2.5%
- inhibition [13]: 7%
